According to patent US20230270724A1, “PDE3 inhibitors for treating viral infections” (priority 2020, published 2023):
Values joined by “and” are separate entries in the source; they are usually repeats but may differ in a detail not shown here. Equal entries are not always repeated. “Also recorded” adds a separate entry of the source.

What was measured:
pro-inflammation = settings: patients with cardiopulmonary bypass surgery; antiviral activity maintained; cited from earlier work
SARS-CoV-2 = experiment: Clinical case series: enoximone IV (Perfan) in COVID-19 patients at ICU admission, compared with prior control patients; settings: for FiO2 / RESP. RATE: one value per patient; for RESP. SUPPORT: one value per patient 1-4
[1] = at the doses used, all patients
[2] = one value per enoximone-treated subject (1-4 = c4-c7)

CSc1ccc(C(=O)c2[nH]c(=O)[nH]c2C)cc1 [enoximone, 1,3-dihydro-4-methyl-5-[4-(methylthio)benzoyl]-2H-imidazol-2-on]
effectiveness against pro-inflammation compared with methylprednisolone (pro-inflammation): as effective against pro-inflammation as methylprednisolone | time after start of enoximone until breathing calmly and able to call (SARS-CoV-2; Patient 1, 20 mg IV then perfusion 10 mg/h, monosyllabic upon entry): 10 min | time until calmer breathing and mobilisation (SARS-CoV-2; Patient 2, 20 mg IV then 10 mg/h): about 2 days | time before the patient had lost the feeling of dyspnea (SARS-CoV-2; Patient 2, 20 mg IV then 10 mg/h, sputum retention): 1 days | time until patient breathed optimally and Optiflow could be reduced to 0 (SARS-CoV-2; Patient 3 (COPD Gold III), 20 mg IV then 10 mg/h): a day and a half | time until able to breathe calmly and communicate normally (SARS-CoV-2; Patient 4, bolus then i.v. perfusor 5 mg/hour during 24 hours): ≤ 10 min | FiO2 (SARS-CoV-2; after 24 hrs of Enoximone): 60% and 55% and 50% | RESP. RATE (SARS-CoV-2; after 24 hrs of Enoximone): 15 and 12 | RESP. SUPPORT (SARS-CoV-2; after 24 hrs of Enoximone): none and Optiflow (3×) | FiO2 (SARS-CoV-2; after 48 hrs): 60% and 50% | RESP. RATE (SARS-CoV-2; after 48 hrs): 16 and 13 | RESP. SUPPORT (SARS-CoV-2; after 48 hrs): none (2×) and Optiflow (2×) | persistence of beneficial effect (SARS-CoV-2; after discontinuation of enoximone, all patients): beneficial effect persisted even after discontinuation | adverse events (SARS-CoV-2; [1]): no clinically relevant adverse events were observed | tolerability (SARS-CoV-2; [1]): well-tolerated in all patients | blood gas analysis (SARS-CoV-2; between before and 1 h after enoximone): minimal improvement in three out of four patients | stay in ICU (SARS-CoV-2; enoximone-treated patients, controls 12-31 days): 2 to 5 days | discharge from hospital after start of enoximone treatment (SARS-CoV-2; enoximone-treated patients, controls 18-44 days following start of mechanical ventilation): 5 to 12 days | overall stay in hospital (SARS-CoV-2; enoximone-treated patients, controls 22-46 days, Mann-Whitney U test p=0.05): 13 to 15 days | edema (SARS-CoV-2; following enoximone treatment): decrease of edema | oxygenation (SARS-CoV-2; following enoximone treatment (Table 3, FiO2%)): substantially improved | need for mechanical ventilation (SARS-CoV-2; four enoximone-treated patients vs three controls, Fisher's exact test p=0.029): none of the enoximone-treated patients required mechanical ventilation; also recorded: no need for mechanical ventilation | symptomatic relief (SARS-CoV-2; four patients): rapid symptomatic relief in two out of four patients | Days mechanical ventilation (SARS-CoV-2; [2]): 0 days | Total days in hospital [=ii + iii + iv] (SARS-CoV-2; [2]): 14 days and 13 days and 15 days | Total duration of disease (onset-discharge) [=i + ii + iii + iv) (SARS-CoV-2; [2]): 19 and 20 and 26 | time to full recovery (SARS-CoV-2; patients 1 and 4): within a few hours | time to respond (SARS-CoV-2; patients 2 and 3 (comorbid obesity or COPD GOLD III), sputum retention): 24 to 36 h
